One assay relates to normal lung fibroblasts. The experiment in a line: α-SMA levels in TGF-β-stimulated normal lung fibroblasts. The settings on record: peptide following TGF-β stimulation. The class given is cell-based, human. An excerpt: FIGS. 1A-1F. ECM production in recombinant endostatin- and endostatin-derived peptide-treated fibroblasts in combination with TGF-β stimulation. A: FN and Col1α1 expression in human normal lung fibroblasts (NL) treated with vehicle (V), rE alone, or both with prior TGF-β stimulation. Proteins were detected western blot. GAPDH was used as a loading control for lysates. B: FN and Col1α1 expression of endostatin polypeptide-treated lung fibroblasts following TGF-β stimulation in primary pulmonary fibroblasts from a healthy control, a patient with SSc, and a patient with IPF. […] Intensity of bands was normalized to that of GAPDH and expressed as a ratio to Vehicle (V). […]
Cellular lysates were obtained from cultured fibroblasts as previously described (Pilewski et al., Am J Pathol 2005; 166:399-407). […] Cellular lysates were analyzed by western blot. Signals were detected following incubation with horseradish peroxidase-conjugated secondary antibody and chemiluminescence (Perkin Elmer Life Sciences, Inc., Boston, Mass.). The intensity of individual bands with expected molecular sizes was semi-quantitatively analyzed using the image/J® software available at on the internet (/rsb.info.nih.gov/ij/index.html), and normalized to individual GAPDH intensity. […]

The subject of assay [1] is human primary lung fibroblasts. The experiment in a line: FN and Col1α1 western blot in TGF-β-treated primary lung fibroblasts. The class given is cell-based. Conditions: normal human lung fibroblasts; TGF-β 10 ng/ml 24 h, then 5 μg/ml rE or peptide 48 h; vs TGF-β alone. The method, then: Human primary lung and skin fibroblasts were cultured. The explanted lungs of normal organ donors, patients with SSc or IPF, and clinically involved skin of SSc patients, a morphea patient and healthy donors were used for primary fibroblast culture. Approximately 2-cm pieces of peripheral lung and skin were minced and fibroblasts were cultured in Dulbecco's modified Eagle's medium (DMEM; Mediatech, Herndon, Va.) supplemented with 10% FBS, penicillin, streptomycin, and anti-mycotic agent, as previously described (Feghali et al., Arthritis Rheum 1999; 42:1451-7). All the cells were used between passages 3-6.
Cellular lysates were obtained from cultured fibroblasts as previously described (Pilewski et al., Am J Pathol 2005; 166:399-407). Briefly, 2.0×10^5 primary fibroblasts were cultured in 35-mm wells in 0.5% FBS-containing medium supplemented with 10 ng/ml of human recombinant TGF-β or PBS as vehicle control for 24 h, following which 5 μg/ml of human rE, endostatin peptides (E1-E4), or DMSO (vehicle) was added for 48 h. In some experiments, endostatin peptides were used without TGF-β stimulation. Cellular lysates were analyzed by western blot. Signals were detected following incubation with horseradish peroxidase-conjugated secondary antibody and chemiluminescence (Perkin Elmer Life Sciences, Inc., Boston, Mass.). The intensity of individual bands with expected molecular sizes was semi-quantitatively analyzed using the image/J® software available at on the internet (/rsb.info.nih.gov/ij/index.html), and normalized to individual GAPDH intensity.
To evaluate whether endostatin modulates production of ECM components in fibroblasts, FN and Col1α1 expression was examined in normal human lung fibroblasts by western blot analysis. Cells were treated with 5 µg/ml rE for 48 h with or without pre-stimulation with human TGF-β for 24 h. […] To define the functional domain of endostatin that mediates its inhibitory effect, four different peptides were synthesized corresponding to different regions of endostatin (Table 1).
(In general: Immunoblotting shows a protein as a band on a membrane.)

The next assay has as its system MMP-2. As to the kind of experiment: MMP-2 gelatin zymography in primary human lung fibroblasts. The class given is cell-based. Here is the method:
FIG. 14A-14B. A. E4 reduces fibrosis in vitro by inducing MMP-2 activity in primary human lung fibroblasts, thus resulting in increased degradation of collagen and other matrix proteins. Digital image of a gelatin zymography gel showing increased MMP-2 activity when primary human lung fibroblasts are treated with E-4 following TGFβ (lane 4). Lane 1: Vehicle (DMSO); Lane 2: E-4; Lane 3: TGF 3; Lane 4: TGF 3 followed by E4. B. Digital image showing that both total and active MMP-2 levels are increased in cells treated with TGFbeta and E-4.

A further assay has as its system human skin explants. The experiment in a line: Ex vivo human skin fibrosis organ culture, dermal thickness. It counts as cell-based. The method, then:
Human abdominal skin was obtained from corrective plastic surgery. As previously described (Yasuoka et al., The Open Rheumatol J 2008; 2:17-22), subcutaneous fat tissue was removed uniformly and skin tissue was cut into 1.5 cm×1.5 cm sections. The following were injected intradermally in a total volume of 100 μl 1×PBS: rE alone (1-10 μg/ml), endostatin peptides alone (10 μg/ml), rE or endostatin peptides (1-20 μg/ml) in combination with TGF-β (10 ng/ml), and TGF-β alone (10 ng/ml). In some experiments, human skin was first injected with TGF-β for 48 h followed by recombinant endostain (rE) administration in the same injection site as TGF-β. Explants containing complete epidermal and dermal layers were cultured in an air liquid interface with the epidermal and keratin layers side up and exposed to air. The culture medium was replaced every other day. After 1 or 2 weeks, skin tissue corresponding to an area with 8-mm diameter centered around the injection site was harvested using disposable 8-mm Acu Punch® (Acuderm inc., Lauderdale, Fla.). Skin tissue was fixed in 10% formalin prior to embedding in paraffin.
Six μm sections of paraffin-embedded human and mouse skin tissues were stained with hematoxylin and eosin (H&E). In some experiments, sections were stained with Masson trichrome which identifies collagens. Images were taken on a Nikon Eclipse 800 microscope. The thickness of the dermis was measured in 6 random fields of each section using the image/J® software. Data are shown in arbitrary units.

In the case of “H-^133SYCETWRTEAPSATGQASSLLGGRLLGQSAASCHHAYIVLCIENSFMT^180-CONH2 (H-SYCETWRTEAPSATGQASSLLGGRLLGQSAASCHHAYIVLCIENSFMT-NH2; cysteine pairing not given here; UniProt P39060 1704-1751, looked up, fragment) [E4, amino acids 133-180 of human endostatin; differs from E3 by the presence of a carboxy-terminal amide]”, the “TGF-β-induced α-SMA levels” value in the assay on normal lung fibroblasts was “decreased”. For the same substance, the “FN and Col1α1 levels/production” value in assay [1] is reported as “significantly suppressed”. Further, the MMP-2 activity entry in the assay on MMP-2 (E-4 following TGFβ, gelatin zymography) is reported as “increased”. In addition, in the assay on MMP-2 (cells treated with TGFbeta and E-4), the “total and active MMP-2 levels” value is “increased”. Also, the “TGF-β-induced skin fibrosis (dermal thickness), dose response” value with human skin explants (1, 5, 10, 20 μg/ml with TGF-β 10 ng/ml, effect at 5-20 μg/ml) was “clearly ameliorated”. Further, the “dermal thickness, baseline effect” value in the assay on human skin explants (injected alone without TGF-β, rE 1, 5, 10 μg/ml, peptides 10 μg/ml) is listed as “tendency towards reduction”. Also, in the assay on human skin explants (peptides 10 μg/ml with TGF-β 10 ng/ml, vs TGF-β alone), the “development of fibrosis as measured by dermal thickness” value was “significantly abolished”.

Source of the values: US10709769B2, “Use of endostatin peptides for the treatment of fibrosis” (University of Pittsburgh—Of the Commonwealth System of …, priority 2009, dated 2020).
